From ChEMBL document CHEMBL4665854, “Backbone Cyclization Turns a Venom Peptide into a Stable and Equipotent Ligand at Both Muscle and Neuronal Nicotinic Receptors” (J Med Chem, 2020)
Active and inactive are the calls of the source. The rule behind the calls is not given here. Positions of bridges follow the written chain, without caps; N, C: chain ends. Residues, ends and D or L forms follow the SMILES beside them.

What was measured:
[1] = tested on: Phrenic nerve-diaphragm muscle; experiment: Inhibition of muscle contraction in Swiss mouse isolated phrenic nerve hemidiaphragm muscle preparation assessed as reduction of 0.1 Hz stimulation-induced isometric twitch force incubated for 20 to 25 mins; format: functional, tissue-based
[2] = Half life in human serum at 30 uM by LC-MS analysis; format: ADME, cell-free
Danio rerio [3] = experiment: Induction of paralysis in adult Zebrafish assessed as induction of rapid flaccid skeletal muscle paralysis dosed via injection measured after 10 mins; format: functional, organism-based
[4] = tested on: Phrenic nerve-diaphragm muscle; experiment: Reduction in fading of train-of four repetitive stimulation pattern in Swiss mouse isolated phrenic nerve hemidiaphragm muscle preparation at 20 nM; format: functional, tissue-based
[5] = target: T1, Neuronal acetylcholine receptor; alpha3/beta2 (Rattus norvegicus) (UniProt P04757+P12390); experiment: Competitive inhibition of alpha-conotoxin MII binding to rat alpha3beta2 expressed in Xenopus laevis oocytes at 100 nM; format: cell-based; settings: Oocyte
[6] = target: T2, CHRNA1/CHRNB1/CHRNG/CHRND (Rattus norvegicus) (UniProt P25109+P25108+P25110+P18916); experiment: Inhibition of rat (alpha1)2betagammadelta expressed in Xenopus laevis oocytes assessed as dissociation rate constant for inhibition of acetylcholine-induced channel current response at -70 mV holding potential by two-electrode voltage-clamp assay; format: cell-based; settings: Oocyte
[7] = target: CHRNA1/CHRNB1/CHRNG/CHRND (Rattus norvegicus, UniProt P18916+P25108+P25109+P25110); experiment: Inhibition of rat (alpha1)2betagammadelta expressed in Xenopus laevis oocytes assessed as inhibition of acetylcholine-induced channel current response at -70 mV holding potential by two-electrode voltage-clamp assay; format: cell-based, Oocyte
[8] = target: Neuronal acetylcholine receptor; alpha3/beta2 (Rattus norvegicus, UniProt P04757+P12390); experiment: Inhibition of rat alpha3beta2 expressed in Xenopus laevis oocytes assessed as inhibition of acetylcholine-induced channel current response at -70 mV holding potential by two-electrode voltage-clamp assay; format: cell-based, Oocyte
[9] = target: T1, Neuronal acetylcholine receptor; alpha3/beta2 (Rattus norvegicus); experiment: Inhibition of rat alpha3beta2 expressed in Xenopus laevis oocytes assessed as wash-out time needed for recovery of ACh-induced current responses at -70 mV holding potential by two-electrode voltage-clamp assay; format: cell-based; settings: Oocyte
Danio rerio [10] = species on record: Danio rerio; experiment: Induction of paralysis in Zebrafish assessed as inhibition of larvae movement movement at 100 uM added into the water and measured over 1 hr by larvae movement tracking analysis relative to control; format: functional
[11] = target: Neuronal acetylcholine receptor; alpha2/beta2 (Rattus norvegicus) (UniProt P12389+P12390); experiment: Inhibition of rat alpha2beta2 expressed in Xenopus laevis oocytes assessed as acetylcholine-induced channel current response at 10 uM at -70 mV holding potential by two-electrode voltage-clamp assay relative to control; format: cell-based; design: scale not given: the % may be the effect or the level left; settings: Oocyte
[12] = target: Neuronal acetylcholine receptor subunit alpha-7 (Homo sapiens) (UniProt P36544); experiment: Inhibition of human alpha7expressed in Xenopus laevis oocytes assessed as acetylcholine-induced channel current response at 10 uM at -70 mV holding potential by two-electrode voltage-clamp assay relative to control; format: cell-based; design: scale not given: the % may be the effect or the level left; settings: Oocyte
[13] = target: Neuronal acetylcholine receptor; alpha2/beta4 (Rattus norvegicus) (UniProt P12389+P12392); experiment: Inhibition of rat alpha2beta4 expressed in Xenopus laevis oocytes assessed as acetylcholine-induced channel current response at 10 uM at -70 mV holding potential by two-electrode voltage-clamp assay relative to control; format: cell-based; design: scale not given: the % may be the effect or the level left; settings: Oocyte
[14] = target: Neuronal acetylcholine receptor; alpha3/beta4 (Rattus norvegicus) (UniProt P04757+P12392); experiment: Inhibition of rat alpha3beta4 expressed in Xenopus laevis oocytes assessed as acetylcholine-induced channel current response at 10 uM at -70 mV holding potential by two-electrode voltage-clamp assay relative to control; format: cell-based; design: scale not given: the % may be the effect or the level left; settings: Oocyte
[15] = target: Neuronal acetylcholine receptor; alpha4/beta2 (Rattus norvegicus) (UniProt P09483+P12390); experiment: Inhibition of rat alpha4beta2 expressed in Xenopus laevis oocytes assessed as acetylcholine-induced channel current response at 10 uM at -70 mV holding potential by two-electrode voltage-clamp assay relative to control; format: cell-based; design: scale not given: the % may be the effect or the level left; settings: Oocyte
[16] = target: Neuronal acetylcholine receptor; alpha4/beta4 (Rattus norvegicus) (UniProt P09483+P12392); experiment: Inhibition of rat alpha4beta4 expressed in Xenopus laevis oocytes assessed as acetylcholine-induced channel current response at 10 uM at -70 mV holding potential by two-electrode voltage-clamp assay relative to control; format: cell-based; design: scale not given: the % may be the effect or the level left; settings: Oocyte
[17] = target: Neuronal acetylcholine receptor; alpha9/alpha10 (Homo sapiens) (UniProt Q9UGM1+Q9GZZ6); experiment: Inhibition of human alpha9alpha10 expressed in Xenopus laevis oocytes assessed as acetylcholine-induced channel current response at 10 uM at -70 mV holding potential by two-electrode voltage-clamp assay relative to control; format: cell-based; design: scale not given: the % may be the effect or the level left; settings: Oocyte
[18] = target: Nicotinic acetylcholine receptor alpha6/alpha3/beta2/beta3 (Rattus norvegicus, UniProt P04757+P12390+P12391+P43143); experiment: Inhibition of rat alpha6alpha3beta2beta3 expressed in Xenopus laevis oocytes assessed as inhibition of acetylcholine-induced channel current response at -70 mV holding potential by two-electrode voltage-clamp assay relative to control; format: cell-based, Oocyte
[19] = target: Nicotinic acetylcholine receptor alpha-1/beta-1/delta/epsilon (Rattus norvegicus, UniProt P09660+P25108+P25109+P25110); experiment: Inhibition of rat alpha1beta1epsilondelta expressed in Xenopus laevis oocytes assessed as inhibition of acetylcholine-induced channel current response at -70 mV holding potential by two-electrode voltage-clamp assay relative to control; format: cell-based, Oocyte
[20] = target: T2, CHRNA1/CHRNB1/CHRNG/CHRND (Rattus norvegicus); experiment: Inhibition of fetal rat (alpha1)2beta1gammadelta expressed in Xenopus laevis oocytes assessed as dissociation rate constant for inhibition of acetylcholine-induced channel current response at 100 nM at -70 mV holding potential by two-electrode voltage-clamp assay; format: cell-based; settings: Oocyte
[21] = target: Nicotinic acetylcholine receptor alpha-1/beta-1/delta/epsilon (Homo sapiens) (UniProt P02708+P11230+Q07001+Q04844); experiment: Inhibition of adult human (alpha1)2beta1epsilondelta expressed in Xenopus laevis oocytes assessed as dissociation rate constant for inhibition of acetylcholine-induced channel current response at 1 nM at -70 mV holding potential by two-electrode voltage-clamp assay relative to control; format: cell-based; settings: Oocyte
[22] = tested on: Phrenic nerve-diaphragm muscle; experiment: Inhibition of muscle contraction in Swiss mouse isolated phrenic nerve hemidiaphragm muscle preparation assessed as reduction of 0.1 Hz stimulation-induced isometric twitch force by measuring time required to block 50% of nerve-evoked muscle contraction; format: functional
[23] = tested on: Phrenic nerve-diaphragm muscle; experiment: Inhibition of muscle contraction in Swiss mouse isolated phrenic nerve hemidiaphragm muscle preparation assessed as reduction of 0.1 Hz stimulation-induced isometric twitch force by measuring time required for 40% recovery of nerve-evoked muscle contraction; format: functional
[24] = tested on: Phrenic nerve-diaphragm muscle; experiment: (§1) Inhibition of muscle contraction in Swiss mouse isolated phrenic nerve hemidiaphragm muscle preparation assessed as reduction of peak amplitude of 0.1 Hz stimulation-induced nerve contraction at 16 nM incubated for 30 mins relative to control; format: functional; settings: 0.5 h
[25] = tested on: Phrenic nerve-diaphragm muscle; experiment: as §1, with “mins followed addition of 10 uM addition of 3,4-DAP for 27 mins by” for “mins”; format: functional, tissue-based; settings: time 57.0 min
[26] = tested on: Phrenic nerve-diaphragm muscle; experiment: as §1, with “twitch tension-time integrals” for “peak amplitude”, “mins followed addition of 10 uM addition of 3,4-DAP for 27 mins by” for “mins”; format: functional, tissue-based; settings: time 57.0 min
[27] = tested on: Phrenic nerve-diaphragm muscle; experiment: Induction of fading of train-of four repetitive stimulation pattern in Swiss mouse isolated phrenic nerve hemidiaphragm muscle preparation measured at 76% neuromuscular block; format: functional, tissue-based
[28] = Mus musculus, Swiss, Phrenic nerve-diaphragm muscle

Sequence of Neuronal acetylcholine receptor; alpha3/beta2 (P04757 whole entry): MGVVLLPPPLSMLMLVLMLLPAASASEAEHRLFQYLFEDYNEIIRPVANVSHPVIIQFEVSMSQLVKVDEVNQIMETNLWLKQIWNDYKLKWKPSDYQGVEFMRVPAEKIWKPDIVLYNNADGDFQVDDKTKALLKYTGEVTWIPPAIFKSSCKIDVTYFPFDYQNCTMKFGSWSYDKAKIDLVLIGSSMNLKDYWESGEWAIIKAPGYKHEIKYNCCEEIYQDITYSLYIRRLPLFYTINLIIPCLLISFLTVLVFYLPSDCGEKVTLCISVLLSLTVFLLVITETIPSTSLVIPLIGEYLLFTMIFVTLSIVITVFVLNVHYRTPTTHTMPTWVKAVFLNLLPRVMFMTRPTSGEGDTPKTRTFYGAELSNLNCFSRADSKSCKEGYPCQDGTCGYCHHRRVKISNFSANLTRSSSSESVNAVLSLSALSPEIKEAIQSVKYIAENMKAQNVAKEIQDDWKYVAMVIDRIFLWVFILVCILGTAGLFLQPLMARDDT
Sequence of Neuronal acetylcholine receptor; alpha3/beta2 (P12390 whole entry): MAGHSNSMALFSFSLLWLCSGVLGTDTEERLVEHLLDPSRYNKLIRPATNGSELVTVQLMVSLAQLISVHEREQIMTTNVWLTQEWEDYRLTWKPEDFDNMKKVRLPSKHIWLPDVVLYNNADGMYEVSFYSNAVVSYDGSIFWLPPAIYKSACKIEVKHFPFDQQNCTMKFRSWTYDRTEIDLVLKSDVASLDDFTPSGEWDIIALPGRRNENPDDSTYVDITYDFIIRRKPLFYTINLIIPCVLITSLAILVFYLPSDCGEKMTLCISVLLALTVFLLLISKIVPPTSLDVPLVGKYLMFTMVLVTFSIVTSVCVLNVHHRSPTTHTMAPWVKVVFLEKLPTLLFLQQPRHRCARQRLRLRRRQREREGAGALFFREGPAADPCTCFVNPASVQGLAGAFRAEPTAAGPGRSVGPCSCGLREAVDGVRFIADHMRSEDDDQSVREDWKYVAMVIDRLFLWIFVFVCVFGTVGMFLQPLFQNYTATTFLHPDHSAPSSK
Sequence of CHRNA1/CHRNB1/CHRNG/CHRND (P25109 whole entry): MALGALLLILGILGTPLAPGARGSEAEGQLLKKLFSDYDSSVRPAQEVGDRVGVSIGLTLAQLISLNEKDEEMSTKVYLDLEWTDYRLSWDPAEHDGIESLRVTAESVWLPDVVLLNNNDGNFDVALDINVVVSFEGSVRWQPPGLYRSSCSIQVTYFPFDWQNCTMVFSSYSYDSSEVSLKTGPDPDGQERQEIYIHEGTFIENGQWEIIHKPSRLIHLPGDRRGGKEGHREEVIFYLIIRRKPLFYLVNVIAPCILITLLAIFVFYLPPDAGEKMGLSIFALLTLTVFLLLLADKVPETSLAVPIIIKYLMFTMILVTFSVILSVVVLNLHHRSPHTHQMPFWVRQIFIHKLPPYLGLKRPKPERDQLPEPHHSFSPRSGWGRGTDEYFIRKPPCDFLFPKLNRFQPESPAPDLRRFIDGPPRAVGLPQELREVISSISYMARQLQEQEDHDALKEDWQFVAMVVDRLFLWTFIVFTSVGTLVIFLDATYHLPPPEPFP
Sequence of CHRNA1/CHRNB1/CHRNG/CHRND (P25108 whole entry): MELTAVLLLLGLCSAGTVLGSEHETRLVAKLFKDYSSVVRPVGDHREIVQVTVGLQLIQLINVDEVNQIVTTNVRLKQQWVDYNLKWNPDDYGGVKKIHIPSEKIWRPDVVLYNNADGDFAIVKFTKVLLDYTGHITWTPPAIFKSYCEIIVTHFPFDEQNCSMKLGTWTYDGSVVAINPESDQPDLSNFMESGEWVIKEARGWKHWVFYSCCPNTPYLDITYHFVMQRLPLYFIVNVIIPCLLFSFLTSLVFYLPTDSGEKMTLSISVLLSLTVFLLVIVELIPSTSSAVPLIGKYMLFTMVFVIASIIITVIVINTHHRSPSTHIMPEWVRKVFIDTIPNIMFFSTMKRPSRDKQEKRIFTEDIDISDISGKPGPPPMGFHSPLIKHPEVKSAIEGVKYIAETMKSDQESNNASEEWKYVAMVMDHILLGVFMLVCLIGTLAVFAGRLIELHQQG
Sequence of CHRNA1/CHRNB1/CHRNG/CHRND (P25110 whole entry): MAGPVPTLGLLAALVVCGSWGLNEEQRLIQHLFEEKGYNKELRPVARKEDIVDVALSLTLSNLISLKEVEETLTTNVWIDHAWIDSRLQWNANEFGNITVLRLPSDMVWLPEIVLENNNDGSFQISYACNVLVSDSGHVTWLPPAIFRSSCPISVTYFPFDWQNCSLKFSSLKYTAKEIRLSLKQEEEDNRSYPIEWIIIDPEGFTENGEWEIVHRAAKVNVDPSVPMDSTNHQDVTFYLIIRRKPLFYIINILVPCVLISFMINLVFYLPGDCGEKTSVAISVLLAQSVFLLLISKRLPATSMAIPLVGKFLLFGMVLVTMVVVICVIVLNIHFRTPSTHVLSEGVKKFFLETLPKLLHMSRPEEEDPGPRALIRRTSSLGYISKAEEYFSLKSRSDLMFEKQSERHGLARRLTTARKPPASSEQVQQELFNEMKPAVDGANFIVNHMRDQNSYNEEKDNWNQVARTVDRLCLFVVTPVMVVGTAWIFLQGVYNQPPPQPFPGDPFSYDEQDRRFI
Sequence of CHRNA1/CHRNB1/CHRNG/CHRND (P18916 whole entry): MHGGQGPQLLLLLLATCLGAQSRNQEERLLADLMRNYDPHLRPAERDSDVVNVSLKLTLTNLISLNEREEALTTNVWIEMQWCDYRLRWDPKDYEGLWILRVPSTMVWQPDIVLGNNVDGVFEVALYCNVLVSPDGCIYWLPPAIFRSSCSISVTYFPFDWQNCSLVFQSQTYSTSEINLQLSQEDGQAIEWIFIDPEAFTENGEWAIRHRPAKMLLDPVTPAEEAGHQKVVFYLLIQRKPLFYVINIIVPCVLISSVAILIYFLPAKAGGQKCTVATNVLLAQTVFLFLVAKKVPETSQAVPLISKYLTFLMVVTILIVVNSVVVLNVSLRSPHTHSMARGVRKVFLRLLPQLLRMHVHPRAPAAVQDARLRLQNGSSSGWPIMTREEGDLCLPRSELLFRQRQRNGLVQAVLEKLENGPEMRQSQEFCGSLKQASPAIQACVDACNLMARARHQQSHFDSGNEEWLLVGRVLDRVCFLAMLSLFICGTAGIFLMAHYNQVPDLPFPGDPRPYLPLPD
Sequence of Nicotinic acetylcholine receptor alpha6/alpha3/beta2/beta3 (P04757 whole entry): as the sequence (P04757 whole entry) above
Sequence of Nicotinic acetylcholine receptor alpha6/alpha3/beta2/beta3 (P12390 whole entry): as the sequence (P12390 whole entry) above
Sequence of Nicotinic acetylcholine receptor alpha6/alpha3/beta2/beta3 (P12391 whole entry): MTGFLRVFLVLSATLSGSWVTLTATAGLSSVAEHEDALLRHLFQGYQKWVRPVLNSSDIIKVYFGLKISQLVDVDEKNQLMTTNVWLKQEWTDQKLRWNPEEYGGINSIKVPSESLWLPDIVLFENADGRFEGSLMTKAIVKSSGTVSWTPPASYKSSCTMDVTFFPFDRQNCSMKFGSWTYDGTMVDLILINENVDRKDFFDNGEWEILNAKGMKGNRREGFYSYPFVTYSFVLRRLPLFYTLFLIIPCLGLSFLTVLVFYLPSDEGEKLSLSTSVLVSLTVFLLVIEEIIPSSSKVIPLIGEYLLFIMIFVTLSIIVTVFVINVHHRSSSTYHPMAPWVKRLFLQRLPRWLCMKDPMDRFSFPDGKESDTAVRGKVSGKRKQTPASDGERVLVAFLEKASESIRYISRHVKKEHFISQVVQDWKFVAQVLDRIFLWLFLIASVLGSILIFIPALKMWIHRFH
Sequence of Nicotinic acetylcholine receptor alpha6/alpha3/beta2/beta3 (P43143 whole entry): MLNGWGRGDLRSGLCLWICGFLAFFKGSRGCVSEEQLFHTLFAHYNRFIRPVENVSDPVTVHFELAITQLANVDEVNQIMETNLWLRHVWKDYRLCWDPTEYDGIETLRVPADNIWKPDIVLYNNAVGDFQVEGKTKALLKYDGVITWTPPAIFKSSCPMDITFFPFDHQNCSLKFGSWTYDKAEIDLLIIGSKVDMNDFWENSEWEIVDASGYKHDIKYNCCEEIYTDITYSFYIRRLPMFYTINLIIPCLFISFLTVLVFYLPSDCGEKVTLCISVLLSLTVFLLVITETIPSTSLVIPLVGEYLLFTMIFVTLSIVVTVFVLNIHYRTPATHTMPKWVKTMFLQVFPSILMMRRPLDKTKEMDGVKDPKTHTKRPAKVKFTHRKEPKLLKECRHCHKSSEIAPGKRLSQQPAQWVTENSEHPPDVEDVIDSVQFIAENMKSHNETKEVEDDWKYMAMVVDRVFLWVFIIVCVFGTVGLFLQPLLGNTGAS
Sequence of Nicotinic acetylcholine receptor alpha-1/beta-1/delta/epsilon (P25109 whole entry): as the sequence (P25109 whole entry) above
Sequence of Nicotinic acetylcholine receptor alpha-1/beta-1/delta/epsilon (P25108 whole entry): as the sequence (P25108 whole entry) above
Sequence of Nicotinic acetylcholine receptor alpha-1/beta-1/delta/epsilon (P25110 whole entry): as the sequence (P25110 whole entry) above
Sequence of Nicotinic acetylcholine receptor alpha-1/beta-1/delta/epsilon (P09660 whole entry): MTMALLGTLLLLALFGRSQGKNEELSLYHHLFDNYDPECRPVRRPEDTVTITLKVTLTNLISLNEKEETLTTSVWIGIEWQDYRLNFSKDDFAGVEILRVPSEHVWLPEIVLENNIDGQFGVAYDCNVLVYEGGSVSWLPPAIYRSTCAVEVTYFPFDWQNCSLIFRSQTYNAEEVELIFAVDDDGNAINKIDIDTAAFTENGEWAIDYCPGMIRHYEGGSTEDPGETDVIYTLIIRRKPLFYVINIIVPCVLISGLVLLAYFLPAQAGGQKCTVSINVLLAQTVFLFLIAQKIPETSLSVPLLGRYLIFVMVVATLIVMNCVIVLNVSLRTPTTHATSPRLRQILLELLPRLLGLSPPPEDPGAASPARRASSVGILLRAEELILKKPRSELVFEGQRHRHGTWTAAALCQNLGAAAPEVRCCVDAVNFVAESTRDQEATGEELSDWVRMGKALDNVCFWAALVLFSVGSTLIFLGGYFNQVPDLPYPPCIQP

| Compound | half-life at 30 µM [2] [h] | Activity (Danio rerio [3]) | Activity [4] | IC50 [1, 28] [nM] | K [6] [min⁻¹] | IC50 [7] [nM] | IC50 [8] [nM] | IC50 (Danio rerio [3]; Danio rerio, 10 min) [nM] | inhibition in vivo at 100 µM (Danio rerio [10]) [%] | further results |
| --- | --- | --- | --- | --- | --- | --- | --- | --- | --- | --- |
| C[C@@H]1NC(=O)[C@@H]2CCCN2C(=O)[C@H](Cc2c[nH]cn2)NC(=O)[C@@H]2CSSC[C@@H](C(N)=O)NC(=O)[C@H](CO)NC(=O)[C@H](Cc3ccccc3)NC(=O)[C@H](Cc3c[nH]cn3)NC(=O)[C@H](CCCCN)NC(=O)CNC(=O)[C@H](CSSC[C@H](NC(=O)[C@H](CCCNC(=N)N)NC(=O)CNC(=O)[C@@H](N)CC(N)=O)C(=O)N2)NC1=O (H-NGRCCHPACGKHFSC-NH2; disulfide 4-9, 5-15) | 1.33 | Dose-dependent effect | inactive |  |  |  |  |  |  | IC50 [1]: 8.98 nM; IC50 (Danio rerio [3]): 6900 nM |
| C[C@@H]1NC(=O)[C@H](C)NC(=O)[C@@H]2CSSC[C@@H]3NC(=O)[C@H](CSSC[C@H](NC(=O)[C@H](C)NC(=O)[C@@H]4CCCN4C(=O)[C@H](Cc4c[nH]cn4)NC3=O)C(=O)NCC(=O)N[C@@H](CCCCN)C(=O)N[C@@H](Cc3c[nH]cn3)C(=O)N[C@@H](Cc3ccccc3)C(=O)N[C@@H](CO)C(=O)N2)NC(=O)[C@H](CCCNC(=N)N)NC(=O)CNC(=O)[C@H](CC(N)=O)NC(=O)CNC1=O (cyclo(AAGNGRCCHPACGKHFSC); disulfide 7-12, 8-18) | 5.33 | Dose-dependent effect | inactive | 8.7 | 0.03 | 3.57 | 1.3 | 57900 | 20.5 | inhibition [5]: Active; TIME [9]: 0.5 h; Activity [11]: > 80%; Activity [12]: 65%; Activity [13]: > 80%; Activity [14]: > 80%; Activity [15]: > 80%; Activity [16]: > 80%; Activity [17]: > 80%; IC50 [18]: 8.64 nM; IC50 [19]: 0.184 nM; K [20]: 0.03 min⁻¹; K [21]: 0.013 min⁻¹; Time [22]: 19 min; Time [23]: 32.6 min; inhibition at 0.016 µM [24]: 85%; inhibition [25]: inactive; inhibition [26]: inactive; Activity [27]: inactive |
| C[C@@H]1NC(=O)CNC(=O)[C@@H]2CSSC[C@@H]3NC(=O)[C@H](CSSC[C@H](NC(=O)[C@H](C)NC(=O)[C@@H]4CCCN4C(=O)[C@H](Cc4c[nH]cn4)NC3=O)C(=O)NCC(=O)N[C@@H](CCCCN)C(=O)N[C@@H](Cc3c[nH]cn3)C(=O)N[C@@H](Cc3ccccc3)C(=O)N[C@@H](CO)C(=O)N2)NC(=O)[C@H](CCCNC(=N)N)NC(=O)CNC(=O)[C@H](CC(N)=O)NC(=O)CNC(=O)[C@H](C)NC1=O (cyclo(AAGNGRCCHPACGKHFSCG); disulfide 7-12, 8-18) | > 8 | Dose-dependent effect | inactive | 16.5 | 0.066 | 8.64 | 21.3 | 76200 | 25.2 |  |
| C[C@@H]1NC(=O)[C@@H]2CSSC[C@@H]3NC(=O)[C@H](CSSC[C@H](NC(=O)[C@H](C)NC(=O)[C@@H]4CCCN4C(=O)[C@H](Cc4c[nH]cn4)NC3=O)C(=O)NCC(=O)N[C@@H](CCCCN)C(=O)N[C@@H](Cc3c[nH]cn3)C(=O)N[C@@H](Cc3ccccc3)C(=O)N[C@@H](CO)C(=O)N2)NC(=O)[C@H](CCCNC(=N)N)NC(=O)CNC(=O)[C@H](CC(N)=O)NC(=O)CNC1=O (cyclo(ACGKHFSCAGNGRCCHP); disulfide 2-14, 8-15) | 7.33 | Dose-dependent effect | inactive | 13.5 | 0.126 | 7.54 | 10.3 | 12100 | 99.8 |  |
